Experimental data: patent US20130005811A1, “ANTIMICROBIAL TREATMENT FOR SEEDS AND SPROUTS” (priority 2010, published 2013)

What was measured:
[1] = system: watermelon seeds; assay: Germination of treated watermelon seeds; conditions: 0.05% SDS alone (negative control)
[2] = system: Clavibacter michiganenses subsp. michiganenses (CMM); conditions: 0.5% levulinic acid, 30° C., 30 hr, OD 600 nm
Description: (§1) The effect of levulinic acid on in vitro growth of a range of phytobacteria was determined using a Microbiology Reader BioscreenC (Transgalactic Ltd.; Helsinki, Finland) according to manufacturer's instructions. Briefly, inoculum was generated by transferring one colony of each bacterium from a three-day-old nutrient agar culture (Difco) to 5 ml of nutrient broth. Broth cultures were incubated overnight at 30° C. with continuous agitation and cells from 1 ml of broth were harvested by centrifugation (16,200×g) for 3 min and adjusted to about 3.0×10^8 CFU/ml (ODA600 nm=0.3) spectrophotometrically (Spectronic 20, Bausch and Lomb, Rochester, N.Y.). Cell suspensions were ten-fold serially diluted to desired concentrations, and 10 μl of each suspension was transferred to a single well in a honeycomb plate (Oy Growth Curves AB Ltd., Helsinki, Finland) containing 190 μl of nutrient broth amended with 3%, 1% or 0.5% levulinic acid. This yielded a starting suspension of about 1.5×10^4 CFU/ml. The microplate containing ten replicates of each bacterium×levulinic acid concentration treatment was incubated at 30° C. with continuous agitation in a BioscreenC MBR incubator/reader. Optical density measurements of each well were taken at a wavelength of 600 nm at 30 min intervals for 30 hr.

[3] = system: Acidovorax avenae subsp. citrulli (Aac)
Description: (§2) The ability of combinations of levulinic acid and SDS to kill a range of plant pathogenic bacteria in vitro was tested. Nutrient broth liquid cultures were supplemented with 3%, 1%, or 0.5% levulinic acid. A range of gram-negative plant pathogenic bacteria was screened, including Acidovorax avenae subsp. citrulli, Erwinia (Pectobacterium) carotovora subsp. carotovora, Xanthomonas campestris pv. campestris, Xanthomonas axonopodis pv. vesicatoria and Pantoea ananatis subsp. ananatis. […] Each bacterium was evaluated 10 times and the experiment was repeated.
as §1

[4] = system: Erwinia carotovora subsp. carotovora (ECC)
Description: as §2, §1

[5] = system: Xanthomonas campestris pv. campestris (XCC)
Description: as §2, §1

[6] = system: Xanthomonas campestris pv. vesicatoria (XCV)
Description: as §2, §1

[7] = system: Pantoea ananatis (PNA)
Description: as §2, §1

[8] = 0.5% levulinic acid, 30° C., 30 hr, OD 600 nm

SMILES | Germination percentage [1] [%] | In vitro growth in nutrient broth [2] | Kind of action (broth cultures plated after incubation) [3] | Number of viable cells in the liquid broth ([3]; 0.5% levulinic acid) | In vitro growth in nutrient broth [3, 8] | Kind of action (broth cultures plated after incubation) [4] | Number of viable cells in the liquid broth ([4]; 0.5% levulinic acid) | In vitro growth in nutrient broth [4, 8] | Kind of action (broth cultures plated after incubation) [5] | Number of viable cells in the liquid broth ([5]; 0.5% levulinic acid) | In vitro growth in nutrient broth [5, 8] | Kind of action (broth cultures plated after incubation) [6] | Number of viable cells in the liquid broth ([6]; 0.5% levulinic acid) | In vitro growth in nutrient broth [6, 8] | Kind of action (broth cultures plated after incubation) [7] | Number of viable cells in the liquid broth ([7]; 0.5% levulinic acid) | In vitro growth in nutrient broth [7, 8]
CCCCCCCCCCCCOS(=O)(=O)[O-].[Na+] [0.05% SDS, sodium dodecyl sulfate] | 89.25 | – | – | – | – | – | – | – | – | – | – | – | – | – | – | – | –
CC(=O)CCC(=O)O [levulinic acid, Levulinic acid] | – | prevented the growth | bactericidal rather than bacteristatic | killed the pathogens | prevented the growth | bactericidal rather than bacteristatic | killed the pathogens | prevented the growth | bactericidal rather than bacteristatic | killed the pathogens | prevented the growth | bactericidal rather than bacteristatic | killed the pathogens | prevented the growth | bactericidal rather than bacteristatic | killed the pathogens | prevented the growth
